The record followed here is patent US20250129091A1, “THIENOPYRROLOTRIAZINE COMPOUNDS, THEIR PREPARATION AND THEIR THERAPEUTIC USE” (Sanofi, priority 2022, published 2025).

This assay concerns NLRP3 inflammasome. The assay can be described thus: IL-1β secretion assay (LPS-primed, nigericin-activated THP-1 cells, MSD readout). It counts as cell-based. As to conditions: Homo sapiens, THP-1, LPS-primed, read-out: IL1b IC50. The procedure:
Monocytic THP-1 cells (DSMZ) were maintained in RPMI media (RPMI 1640 Medium (1×) +10% FBS, Eurobio CVFSVFOO—OU). Cells were then plated at 16,000 cells per well in 96-well round bottom cell culture plates (TPP, ref 92097) and maintained with RPMI and 0.1% Bovine Serum Albumin solution. Activation of the NLRP3 inflammasome requires both an NF-kB-dependent priming step and the addition of a NLRP3 activator. The priming step was induced by LPS (10 ng/mL, Sigma, ref:L4391) for 3 h at 37° C., then compound, in a 1:3.10 serial dilution series in DMSO 1:100, and the activator nigericin (Sigma Aldrich, ref: SML1779) 10 μM (final concentration) were added to the cells and co-incubated for 2 h. 50 μL supernatant was removed, and IL-1β levels were monitored using an MSD assay (Electro Chemical Luminescence Immunoassay (ECLI) according to manufacturers' instructions.
IC50 values were calculated from the plot of percentage of inhibition versus the inhibitor concentration by a logistics fit according to: y=A2+(A1−A2)/(1+(x/IC50)^p) where y is the %-inhibition at the inhibitor concentration, x. A1 is the lowest inhibition value, i.e., 0%, and A2 the maximum inhibition value, i.e., 100%. The exponent, p, is the Hill coefficient. The curve fitting was conducted with an internally developed software.

SMILES strings stand for the structures.

For orientation: IC50 means the concentration that gives 50% inhibition. On to `CC(C)c1nn(CC(=O)N[C@@H]2CCCN(C3COC3)C2)c(=O)c2cc3ccsc3n12` [Example 40, (R)-2-(8-isopropyl-5-oxothieno[3′,2′:4,5]pyrrolo[1,2-d][1,2,4]triazin-6(5H)-yl)-N-(1-(oxetan-3-yl)piperidin-3-yl)acetamide], for which the IC50 is 259 nM.

Take `CC(=O)N1CCC[C@@H](NC(=O)Cn2nc(C(C)C)n3c(cc4ccsc43)c2=O)C1` [Example 42, (R)—N-(1-acetylpiperidin-3-yl)-2-(8-isopropyl-5-oxothieno[3′,2′:4,5]pyrrolo[1,2-d][1,2,4]triazin-6(5H)-yl)acetamide]: the IC50 is 1150 nM.

`CC(C)c1nn(CC(=O)N[C@@H]2CCCN(c3nccn3C)C2)c(=O)c2cc3ccsc3n12` [Example 45, (R)-2-(8-isopropyl-5-oxothieno[3′,2′:4,5]pyrrolo[1,2-d][1,2,4]triazin-6(5H)-yl)-N-(1-(1-methyl-1H-imidazol-2-yl)piperidin-3-yl)acetamide]: the IC50 turned out to be 1530 nM.

Take `CC(C)c1nn(CC(=O)NC2CCN(C)C(=O)C2)c(=O)c2cc3ccsc3n12` (stereo not drawn) [Example 46, 2-(8-isopropyl-5-oxothieno[3′,2′:4,5]pyrrolo[1,2-d][1,2,4]triazin-6(5H)-yl)-N-(1-methyl-2-oxopiperidin-4-yl)acetamide]: the 50% inhibitory concentration (IC50) is 8200 nM.

Consider `CC(C)c1nn(CC(=O)NC2CCC(=O)N(C)C2)c(=O)c2cc3ccsc3n12` (stereo not drawn) [Example 47, 2-(8-isopropyl-5-oxothieno[3′,2′:4,5]pyrrolo[1,2-d][1,2,4]triazin-6(5H)-yl)-N-(1-methyl-6-oxopiperidin-3-yl)acetamide], for which the IC50 is 1030 nM.

As for `CC(C)c1nn(CC(=O)N[C@@H]2CCCN(C(C)C)C2)c(=O)c2cc3ccsc3n12` [Example 48, 2-(12-isopropyl-9-oxo-3-thia-1,10,11-triazatricyclo[6.4.0.02,6]dodeca-2(6),4,7,11-tetraen-10-yl)-N-[(3R)-1-isopropyl-3-piperidyl]acetamide], the IC50 was 58.9 nM.

For the compound `CC(C)c1nn(CC(=O)N[C@@H]2CCCN(C3CCCC3)C2)c(=O)c2cc3ccsc3n12` [Example 49, N-[(3R)-1-cyclopentyl-3-piperidyl]-2-(12-isopropyl-9-oxo-3-thia-1,10,11-triazatricyclo [6.4.0.02,6]dodeca-2(6),4,7,11-tetraen-10-yl)acetamide], the concentration for half-maximal inhibition (IC50) was 27 nM.

As for `CC(C)(O)c1nn(CC(=O)N[C@@H]2CCCN(C3CC3)C2)c(=O)c2cc3ccsc3n12` [Example 52, (R)—N-(1-cyclopropylpiperidin-3-yl)-2-(8-(2-hydroxypropan-2-yl)-5-oxothieno[3′,2′:4,5]pyrrolo[1,2-d][1,2,4]triazin-6(5H)-yl)acetamide], the IC50 came out at 82 nM.

As for `CC(C)c1nn(CC(=O)Nc2ccnn2C)c(=O)c2cc3ccsc3n12` [Example 53, 2-(12-isopropyl-9-oxo-3-thia-1,10,11-triazatricyclo[6.4.0.02,6]dodeca-2(6),4,7,11-tetraen-10-yl)-N-(2-methylpyrazol-3-yl)acetamide], the half-inhibitory concentration (IC50) was 1070 nM.

As for `CC(C)c1nn(CC(=O)Nc2ccn(C)n2)c(=O)c2cc3ccsc3n12` [Example 54, 2-(12-isopropyl-9-oxo-3-thia-1,10,11-triazatricyclo[6.4.0.02,6]dodeca-2(6),4,7,11-tetraen-10-yl)-N-(1-methylpyrazol-3-yl)acetamide], the concentration for half-maximal inhibition (IC50) worked out at 1710 nM.

On to `CC(C)c1nn(CC(=O)NCC2CC(=O)N(C(C)(C)C)C2)c(=O)c2cc3ccsc3n12` (stereo not drawn) [Example 55, N-[(1-tert-butyl-5-oxo-pyrrolidin-3-yl)methyl]-2-(12-isopropyl-9-oxo-3-thia-1,10,11-triazatricyclo[6.4.0.02,6]dodeca-2(6),4,7,11-tetraen-10-yl)acetamide], for which the IC50 came out at 3230 nM.

Take `CC(C)c1nn(CC(=O)Nc2cccnc2)c(=O)c2cc3ccsc3n12` [Example 56, 2-(12-isopropyl-9-oxo-3-thia-1,10,11-triazatricyclo[6.4.0.02,6]dodeca-2(6),4,7,11-tetraen-10-yl)-N-(3-pyridyl)acetamide]: the IC50 came out at 1470 nM.

As for `CC(C)c1nn(CC(=O)Nc2ccccn2)c(=O)c2cc3ccsc3n12` [Example 58, 2-(12-isopropyl-9-oxo-3-thia-1,10,11-triazatricyclo[6.4.0.02,6]dodeca-2(6),4,7,11-tetraen-10-yl)-N-(2-pyridyl)acetamide], the IC50 was determined as 657 nM.

Consider `CCc1nn(CC(=O)N[C@@H]2CCCN(C3CC3)C2)c(=O)c2cc3ccsc3n12` [Example 60, N-[(3R)-1-cyclopropyl-3-piperidyl]-2-(12-ethyl-9-oxo-3-thia-1,10,11-triazatricyclo [6.4.0.02,6]dodeca-2(6),4,7,11-tetraen-10-yl)acetamide], for which the half-maximal inhibitory concentration (IC50) is 130 nM.

For `CC(C)c1nn(CC(=O)N[C@@H]2CCCCN(C3CC3)C2)c(=O)c2cc3ccsc3n12` [Example 61, N-[(3R)-1-cyclopropylazepan-3-yl]-2-(12-isopropyl-9-oxo-3-thia-1,10,11-triazatricyclo [6.4.0.02,6]dodeca-2(6),4,7,11-tetraen-10-yl)acetamide], the IC50 was 159 nM.

Turning to `CC(C)c1nn(CC(=O)N[C@@H]2CCCCN(C)C2)c(=O)c2cc3ccsc3n12` [Example 62, 2-(12-isopropyl-9-oxo-3-thia-1,10,11-triazatricyclo[6.4.0.02,6]dodeca-2(6),4,7,11-tetraen-10-yl)-N-[(3R)-1-methylazepan-3-yl]acetamide], the IC50 worked out at 850 nM.

As to `CC(C)c1nn(CC(=O)NC2CN(C3CC3)CC(F)(F)C2)c(=O)c2cc3ccsc3n12` (stereo not drawn) [Example 63, N-(1-cyclopropyl-5,5-difluoropiperidin-3-yl)-2-(8-isopropyl-5-oxothieno[3′,2′:4,5]pyrrolo [1,2-d][1,2,4]triazin-6(5H)-yl)acetamide 2,2,2-trifluoroacetate], the IC50 came out at 1660 nM.

With `COCC(C)N1CCC[C@@H](NC(=O)Cn2nc(C(C)C)n3c(cc4ccsc43)c2=O)C1` (stereo partly drawn) [Example 64, 2-(8-isopropyl-5-oxothieno[3′,2′:4,5]pyrrolo[1,2-d][1,2,4]triazin-6(5H)-yl)-N-((3R)-1-(1-methoxypropan-2-yl)piperidin-3-yl)acetamide], the IC50 came to 109 nM.

Take `COc1cc(NC(=O)Cn2nc(C(C)C)n3c(cc4ccsc43)c2=O)ccn1` [Example 65, 2-(8-isopropyl-5-oxothieno[3′,2′:4,5]pyrrolo[1,2-d][1,2,4]triazin-6(5H)-yl)-N-(2-methoxypyridin-4-yl)acetamide]: the IC50 is 3800 nM.

As for `CC(C)c1nn(CC(=O)Nc2ccncn2)c(=O)c2cc3ccsc3n12` [Example 66, 2-(12-isopropyl-9-oxo-3-thia-1,10,11-triazatricyclo[6.4.0.02,6]dodeca-2(6),4,7,11-tetraen-10-yl)-N-pyrimidin-4-yl-acetamide], the IC50 turned out to be 2070 nM.

On to `CC(C)c1nn(CC(=O)Nc2ccncc2)c(=O)c2cc3ccsc3n12` [Example 67, 2-(12-isopropyl-9-oxo-3-thia-1,10,11-triazatricyclo[6.4.0.02,6]dodeca-2(6),4,7,11-tetraen-10-yl)-N-(4-pyridyl)acetamide], for which the half-maximal inhibitory concentration (IC50) came to 446 nM.

As to `Cc1ccc(NC(=O)Cn2nc(C(C)C)n3c(cc4ccsc43)c2=O)cn1` [Example 68, 2-(12-isopropyl-9-oxo-3-thia-1,10,11-triazatricyclo[6.4.0.02,6]dodeca-2(6),4,7,11-tetraen-10-yl)-N-(6-methyl-3-pyridyl)acetamide], the half-maximal inhibitory concentration (IC50) stood at 2280 nM.

In the case of `CCc1nn(CC(=O)N[C@@H]2CCCN(C[C@H](C)O)C2)c(=O)c2cc3ccsc3n12` [Example 69, 2-(12-ethyl-9-oxo-3-thia-1,10,11-triazatricyclo[6.4.0.02,6]dodeca-2(6),4,7,11-tetraen-10-yl)-N-[(3R)-1-[(2S)-2-hydroxypropyl]-3-piperidyl]acetamide], the IC50 was 3430 nM.

Consider `CC(C)c1nn(CC(=O)Nc2ncncc2F)c(=O)c2cc3ccsc3n12` [Example 70, N-(5-fluoropyrimidin-4-yl)-2-(12-isopropyl-9-oxo-3-thia-1,10,11-triazatricyclo[6.4.0.02,6]dodeca-2(6),4,7,11-tetraen-10-yl)acetamide], for which the IC50 worked out at 148 nM.

In the case of `CC(C)c1nn(CC(=O)N[C@@H]2CCCN(C3(C)CCCC3)C2)c(=O)c2cc3ccsc3n12` [Example 71, 2-(12-isopropyl-9-oxo-3-thia-1,10,11-triazatricyclo[6.4.0.02,6]dodeca-2(6),4,7,11-tetraen-10-yl)-N-[(3R)-1-(1-methylcyclopentyl)-3-piperidyl]acetamide], the concentration for half-maximal inhibition (IC50) came to 70 nM.

Turning to `CCCc1nn(CC(=O)N[C@@H]2CCCN(C3CC3)C2)c(=O)c2cc3ccsc3n12` [Example 72, N-[(3R)-1-cyclopropylpiperidin-3-yl]-2-(9-oxo-12-propyl-3-thia-1,10,11-triazatricyclo [6.4.0.02,6]dodeca-2(6),4,7,11-tetraen-10-yl)acetamide], the half-maximal inhibitory concentration (IC50) was over 10000 nM.

With `CCc1nn(CC(=O)N[C@@H]2CCCN(C)C2)c(=O)c2cc3ccsc3n12` [Example 73, 2-(12-ethyl-9-oxo-3-thia-1,10,11-triazatricyclo[6.4.0.02,6]dodeca-2(6),4,7,11-tetraen-10-yl)-N-[(3R)-1-methyl-3-piperidyl]acetamide], the IC50 is over 10000 nM.
